How the values were obtained:
Metformin = compound: CN(C)C(=N)NC(=N)N [Metformin]; experiment: relative viability (nuclei count vs DMSO), 5 days (fraction); higher = more cells survive
Outline: (§1)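 Lung cancer cell lines were seeded into 1536-well plates, kept overnight at 37 °C and pinned with five library-drug doses (not always all listed) spaced by √10. After 5 days, nuclei were Hoechst-stained, imaged at 4× and counted with MetaXpress. Viability is treated-well nuclei over vehicle-well nuclei, taken as a median across plates. Plates needed control CV below 25% and at least one doubling.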

Apatinib = compound: N#CC1(c2ccc(NC(=O)c3cccnc3NCc3ccncc3)cc2)CCCC1 [Apatinib]; experiment: as above
Outline: as §1

Row | Cell Line | relative viability (Metformin; 10 µM) | relative viability (Metformin; 31.62 µM) | relative viability (Metformin; 100 µM) | relative viability (Metformin; 316.23 µM) | relative viability (Metformin; 1000 µM) | relative viability (Apatinib; 0.08 µM) | relative viability (Apatinib; 0.253 µM) | relative viability (Apatinib; 0.8 µM) | relative viability (Apatinib; 2.53 µM) | relative viability (Apatinib; 8 µM)
1 | NCI-H1792 | 0.901 | 0.969 | 1.06 | 1.01 | 1.05 | 0.884 | 0.883 | 0.887 | 0.863 | 0.725
2 | NCI-H1944 | 0.845 | 1.1 | 0.954 | 0.882 | 1.04 | 0.948 | 0.921 | 0.886 | 0.791 | 0.921
3 | NCI-H2170 | 0.787 | 0.882 | 0.907 | 0.957 | 1.01 | 0.981 | 1.01 | 0.909 | 0.89 | 0.886
4 | COR-L23 | 0.979 | 1.06 | 0.974 | 0.977 | 1 | 1.04 | 0.942 | 1.05 | 0.914 | 0.865
5 | COR-L 105 | 1.02 | 1.04 | 1.16 | 0.994 | 0.964 | 0.976 | 1.04 | 0.85 | 0.814 | 0.855
6 | HCC-15 |  | 1.08 | 1 | 0.926 | 1.05 | 1.1 | 0.978 | 0.971 | 0.909 | 0.841
7 | NCI-H1666 | 0.938 | 1.11 | 0.971 | 1.07 | 1.09 | 1.01 | 0.958 | 0.969 | 0.997 | 0.986
8 | HCC-78 | 0.857 | 1.03 | 1.27 | 0.968 | 1.14 | 0.967 | 0.847 | 1.01 | 0.803 | 0.858
9 | Calu-6 | 0.899 | 0.961 | 0.953 | 0.931 | 0.964 | 1.01 | 1.01 | 0.908 | 0.868 | 0.799
10 | A-427 | 1.05 | 1.02 | 0.985 | 1.01 | 1.05 | 1.09 | 0.967 | 0.965 | 0.926 | 0.906
11 | SW 900 | 1.08 | 1.15 | 0.779 | 0.933 | 1.07 | 1 | 0.87 | 0.858 | 0.615 | 0.825
12 | NCI-H596 | 1.17 | 1.14 | 1.02 | 1.06 | 1.09 | 0.939 | 1.03 | 0.94 | 0.911 | 0.882
13 | EMC-BAC-2 | 0.944 | 0.99 | 0.788 | 0.94 | 0.968 | 0.772 | 0.994 | 0.957 | 0.8 | 0.811
14 | NCI-H1703 | 1.3 | 1.42 | 0.998 | 1.06 | 1.19 | 0.784 | 0.769 | 0.355 | 0.199 | 0.19
15 | NCI-H2342 | 0.665 | 1.03 | 1.04 | 0.935 | 1.07 | 0.899 | 0.909 | 0.998 | 0.929 | 0.941
16 | NCI-H2126 | 0.905 | 0.992 | 0.981 | 0.932 | 1.03 | 0.975 | 0.904 | 0.969 | 0.918 | 1.02
17 | NCI-H1437 | 1.09 | 1.16 | 1.01 | 1.04 | 1.08 | 0.949 | 0.995 | 0.996 | 0.83 | 0.799

Row | Cell Line | relative viability (Metformin; 10 µM) | relative viability (Metformin; 31.62 µM) | relative viability (Metformin; 100 µM) | relative viability (Metformin; 316.23 µM) | relative viability (Metformin; 1000 µM) | relative viability (Apatinib; 0.08 µM) | relative viability (Apatinib; 0.253 µM) | relative viability (Apatinib; 0.8 µM) | relative viability (Apatinib; 2.53 µM) | relative viability (Apatinib; 8 µM)
18 | LXF-289 | 0.872 | 0.927 | 0.95 | 0.946 | 0.99 | 0.989 | 0.976 | 0.981 | 0.943 | 0.951
19 | LK-2 | 1.22 | 1.28 | 1.22 | 1.07 | 1.32 | 0.978 | 0.976 | 0.973 | 0.856 | 0.634
20 | LC-2-ad |  | 1.01 | 0.943 | 0.8 | 0.767 | 0.931 | 0.991 | 0.911 | 0.856 | 0.819
21 | NCI-H2085 | 0.977 | 0.939 | 0.956 | 0.977 | 0.991 | 0.986 | 0.979 | 0.953 | 0.92 | 0.971
22 | RERF-LC-KJ | 0.817 | 0.976 | 0.888 | 0.786 | 0.926 | 1.03 | 0.978 | 0.933 | 0.847 | 0.802
23 | LOU-NH91 | 0.998 | 0.865 | 0.973 | 0.997 | 0.946 | 0.94 | 0.922 | 0.871 | 0.89 | 0.898
24 | NCI-H2009 | 0.889 | 1.1 | 1.04 | 1.02 | 1.03 | 1.06 | 0.979 | 0.968 | 0.762 | 0.618
25 | UMC-11 | 0.961 | 1.02 | 1.06 | 0.96 | 0.992 | 1.06 | 0.866 | 0.942 | 0.899 | 0.885
26 | NCI-H2347 | 0.918 | 1.05 | 0.969 | 0.944 | 1.1 | 1.03 | 0.964 | 1.03 | 0.858 | 0.933
27 | LU99A | 0.946 | 0.894 | 0.785 | 0.792 | 0.915 | 0.923 | 1.11 | 0.95 | 0.925 | 0.83
28 | NCI-H3122 | 0.817 | 0.939 | 0.891 | 0.819 | 0.872 | 1 | 0.988 | 0.98 | 0.969 | 1.03
29 | SW 1573 | 1.13 | 1.1 | 1.01 | 0.843 | 0.864 | 1.08 | 1.12 | 0.941 | 0.839 | 0.872
30 | HARA | 1.12 | 1.26 | 1.13 | 1.06 | 1.13 | 1.33 | 0.93 | 1 | 0.742 | 1.04
31 | NCI-H1793 | 0.943 | 1.01 | 0.993 | 0.977 | 1.25 | 1.02 | 1.01 | 0.857 | 0.772 | 0.749
32 | NCI-H727 | 1.04 | 1.06 | 1.13 | 0.688 | 1.16 | 1.08 | 0.879 | 0.937 | 0.77 | 0.843
33 | NCI-H1623 | 0.985 | 0.982 | 1.08 | 0.909 | 1.03 | 1 | 0.924 | 0.966 | 0.946 | 0.593
34 | 201T |  | 1.08 | 1.06 | 0.934 | 1.01 | 0.983 | 0.961 | 0.982 | 0.871 | 0.894

Source: the supplement of paper PMC10307832
